Experimental data from ChEMBL document CHEMBL4840345, “Penispidins A-C, Aromatic Sesquiterpenoids from Penicillium virgatum and Their Inhibitory Effects on Hepatic Lipid Accumulation” (J Nat Prod, 2021).
Activity calls are given as the source filed them. The calls are words filed in the database; no cut-off is given here.

Assays:
HepG2 [1] = assay: Cytotoxicity against human HepG2 cells assessed as cell viability at 10 uM measured after 24 hrs by MTT assay; assay type: cell-based; conditions: hepg2, 24 h
HepG2 [2] = assay: Hypolipidemic activity in human HepG2 cells assessed as inhibition of oleic acid-BSA induced triglyceride accumulation at 10 uM after 24 hrs; assay type: functional, cell-based
HepG2 [3] = assay: Hypolipidemic activity in human HepG2 cells assessed as inhibition of oleic acid-BSA induced intracellular lipid accumulation at 10 uM after 24 hrs by Oil Red O staining based microscopic assay; assay type: functional, cell-based

`COC(=O)c1ccc2c(c1)OC(C)(C)[C@@H]1CC[C@]21C` was tested, and the Activity (HepG2 [1]) was “Non-Toxic”, the Activity (HepG2 [2]) was “Active” and the inhibition (HepG2 [3]) was “Active”.

In the case of `C[C@]12CCC[C@](C)(C1)c1ccc(C(=O)O)cc1O2`, the Activity (HepG2 [1]) is reported as “Non-Toxic”.

With `C[C@@]12CCC[C@@](C)(C1)c1ccc(C(=O)O)cc1O2` the Activity (HepG2 [1]) was “Non-Toxic”.

`COC(=O)c1ccc2c(c1)O[C@]1(C)CCC[C@@]2(C)C1` was tested, and the Activity (HepG2 [1]) was “Non-Toxic”.
